Tests used:
Glucocorticoid receptor [1] = target: T1, Glucocorticoid receptor (Homo sapiens, UniProt P04150); assay: Antagonist activity at human GR expressed in CHO-K1 cells assessed as reduction in dexamethasone-induced response incubated for 20 hrs by luciferase reporter gene assay; format: cell-based
T1 sequence (P04150 whole entry): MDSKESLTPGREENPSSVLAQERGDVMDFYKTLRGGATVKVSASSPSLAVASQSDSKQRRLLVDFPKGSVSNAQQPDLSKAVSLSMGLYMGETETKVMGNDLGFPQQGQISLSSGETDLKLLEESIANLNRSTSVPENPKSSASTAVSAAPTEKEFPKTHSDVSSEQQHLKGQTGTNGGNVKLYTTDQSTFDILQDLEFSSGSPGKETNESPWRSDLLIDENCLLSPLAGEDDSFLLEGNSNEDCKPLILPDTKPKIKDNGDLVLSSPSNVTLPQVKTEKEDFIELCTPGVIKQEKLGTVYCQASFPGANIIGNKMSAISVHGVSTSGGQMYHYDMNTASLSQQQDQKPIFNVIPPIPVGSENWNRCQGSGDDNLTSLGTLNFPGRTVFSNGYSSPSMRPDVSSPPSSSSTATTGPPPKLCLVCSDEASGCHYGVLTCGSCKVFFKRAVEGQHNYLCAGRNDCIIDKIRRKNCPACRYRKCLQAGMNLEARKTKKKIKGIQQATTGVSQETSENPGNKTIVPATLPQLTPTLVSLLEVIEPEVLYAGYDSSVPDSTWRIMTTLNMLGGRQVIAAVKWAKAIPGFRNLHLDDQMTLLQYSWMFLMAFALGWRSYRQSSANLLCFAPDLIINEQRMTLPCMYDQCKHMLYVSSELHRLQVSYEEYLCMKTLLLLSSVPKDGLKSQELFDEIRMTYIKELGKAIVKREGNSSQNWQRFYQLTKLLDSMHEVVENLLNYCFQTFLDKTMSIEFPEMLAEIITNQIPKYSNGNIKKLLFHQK

Glucocorticoid receptor [2] = target: T1, Glucocorticoid receptor; assay: Agonist activity at human GR expressed in CHO-K1 cells incubated for 20 hrs by luciferase reporter gene assay; format: cell-based
[3] = target: T2, glucocorticoid receptor (GR) (Homo sapiens, UniProt P04150); assay: Agonist activity at human GR expressed in CHO-K1 cells incubated for 20 hrs by luciferase reporter gene assay relative to dexamethasone; format: cell-based; conditions: CHO-K1 cells expressing human GR
T2 sequence (P04150 whole entry): T1 sequence (P04150 whole entry)

Androgen receptor = target: T3, Androgen receptor (Homo sapiens, UniProt P10275); assay: Agonist activity at AR (unknown origin) expressed in human LNCaP cells incubated for 20 hrs by luciferase reporter gene assay; format: cell-based
T3 sequence (P10275 whole entry): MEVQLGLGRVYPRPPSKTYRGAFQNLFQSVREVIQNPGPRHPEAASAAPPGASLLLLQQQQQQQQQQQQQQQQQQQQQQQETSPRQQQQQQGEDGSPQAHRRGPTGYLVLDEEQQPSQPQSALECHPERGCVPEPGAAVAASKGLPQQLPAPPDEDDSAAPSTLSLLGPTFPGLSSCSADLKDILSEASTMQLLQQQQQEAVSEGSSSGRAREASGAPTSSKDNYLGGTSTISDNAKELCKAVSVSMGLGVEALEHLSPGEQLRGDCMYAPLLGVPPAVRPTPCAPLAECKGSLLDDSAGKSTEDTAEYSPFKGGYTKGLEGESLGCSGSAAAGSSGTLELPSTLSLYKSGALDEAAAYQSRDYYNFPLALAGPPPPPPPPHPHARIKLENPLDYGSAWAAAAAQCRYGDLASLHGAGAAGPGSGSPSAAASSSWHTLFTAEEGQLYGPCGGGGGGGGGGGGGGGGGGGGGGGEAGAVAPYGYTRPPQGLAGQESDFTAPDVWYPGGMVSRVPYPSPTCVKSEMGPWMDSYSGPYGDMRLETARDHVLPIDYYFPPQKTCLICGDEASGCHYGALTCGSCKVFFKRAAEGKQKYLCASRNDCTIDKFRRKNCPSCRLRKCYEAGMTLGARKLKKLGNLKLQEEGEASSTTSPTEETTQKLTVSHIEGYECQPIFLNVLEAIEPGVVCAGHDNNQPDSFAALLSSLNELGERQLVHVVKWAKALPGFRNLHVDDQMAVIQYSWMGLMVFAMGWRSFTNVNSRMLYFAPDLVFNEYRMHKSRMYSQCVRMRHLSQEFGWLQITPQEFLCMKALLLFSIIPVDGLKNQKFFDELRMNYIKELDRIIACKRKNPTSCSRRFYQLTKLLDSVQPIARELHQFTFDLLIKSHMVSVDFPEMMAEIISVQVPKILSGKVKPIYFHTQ

androgen receptor (AR) = target: T4, androgen receptor (AR) (Homo sapiens, UniProt P10275); assay: Agonist activity at AR (unknown origin) expressed in human LNCaP cells incubated for 20 hrs by luciferase reporter gene assay relative to mifepristone; format: cell-based; conditions: human LNCaP cells expressing AR
T4 sequence (P10275 whole entry): T3 sequence (P10275 whole entry)

[4] = Clearance in rat at 0.5 mg/kg, iv; format: ADME, organism-based; conditions: in vivo
[5] = Volume of distribution at steady state in rat at 0.5 mg/kg, iv; format: ADME, organism-based; conditions: in vivo, read-out: Vdss
[6] = Half life in rat at 0.5 mg/kg, iv; format: ADME, organism-based; conditions: in vivo
[7] = Oral bioavailability in rat at 5 mg/kg; format: ADME, organism-based; conditions: in vivo
[8] = Cmax in rat at 5 mg/kg, po; format: ADME, organism-based; design: dose 5 mg/kg, route oral; conditions: in vivo
[9] = AUC in rat at 5 mg/kg, po; format: ADME, organism-based; conditions: in vivo
Cytochrome P450 3A4 = Cytochrome P450 3A4 (Homo sapiens, UniProt P08684); assay: Inhibition of CYP3A4 (unknown origin) using midazolam as substrate; format: ADME
Cytochrome P450 2C8 = target: T5, Cytochrome P450 2C8 (Homo sapiens, UniProt P10632); assay: Inhibition of CYP2C8 (unknown origin) using […] as substrate; format: ADME
T5 sequence (P10632 whole entry): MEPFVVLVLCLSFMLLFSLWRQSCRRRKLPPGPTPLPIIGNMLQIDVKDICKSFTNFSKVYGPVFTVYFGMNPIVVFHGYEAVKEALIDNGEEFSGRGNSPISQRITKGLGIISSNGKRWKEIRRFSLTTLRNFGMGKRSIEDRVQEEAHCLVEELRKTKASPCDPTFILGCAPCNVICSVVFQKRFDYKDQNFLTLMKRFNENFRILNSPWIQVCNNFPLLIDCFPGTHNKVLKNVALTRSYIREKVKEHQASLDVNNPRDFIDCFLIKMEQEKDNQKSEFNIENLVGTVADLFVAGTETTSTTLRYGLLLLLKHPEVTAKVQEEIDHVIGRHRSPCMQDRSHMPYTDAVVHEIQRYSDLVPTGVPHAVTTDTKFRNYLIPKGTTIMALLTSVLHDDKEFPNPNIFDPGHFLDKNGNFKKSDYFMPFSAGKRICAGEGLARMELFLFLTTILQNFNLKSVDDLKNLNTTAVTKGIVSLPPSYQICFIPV

Cytochrome P450 2C9 = Cytochrome P450 2C9 (Homo sapiens, UniProt P11712); assay: Inhibition of CYP2C9 (unknown origin) using […] as substrate; format: ADME
Cytochrome P450 2C9, sequence (P11712 whole entry): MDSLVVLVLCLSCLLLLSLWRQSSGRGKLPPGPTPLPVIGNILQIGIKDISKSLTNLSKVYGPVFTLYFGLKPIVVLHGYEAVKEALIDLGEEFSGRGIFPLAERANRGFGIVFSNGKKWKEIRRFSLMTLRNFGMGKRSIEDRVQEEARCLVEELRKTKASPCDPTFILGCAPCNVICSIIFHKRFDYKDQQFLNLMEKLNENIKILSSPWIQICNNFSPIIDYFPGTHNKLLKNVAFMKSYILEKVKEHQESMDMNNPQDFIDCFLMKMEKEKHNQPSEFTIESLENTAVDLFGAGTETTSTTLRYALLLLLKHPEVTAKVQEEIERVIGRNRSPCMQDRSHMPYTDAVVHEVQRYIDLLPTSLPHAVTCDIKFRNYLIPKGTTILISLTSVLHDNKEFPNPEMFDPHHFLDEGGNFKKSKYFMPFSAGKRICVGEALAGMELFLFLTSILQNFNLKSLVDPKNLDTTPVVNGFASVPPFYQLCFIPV

Cytochrome P450 3A4, sequence (P08684 whole entry): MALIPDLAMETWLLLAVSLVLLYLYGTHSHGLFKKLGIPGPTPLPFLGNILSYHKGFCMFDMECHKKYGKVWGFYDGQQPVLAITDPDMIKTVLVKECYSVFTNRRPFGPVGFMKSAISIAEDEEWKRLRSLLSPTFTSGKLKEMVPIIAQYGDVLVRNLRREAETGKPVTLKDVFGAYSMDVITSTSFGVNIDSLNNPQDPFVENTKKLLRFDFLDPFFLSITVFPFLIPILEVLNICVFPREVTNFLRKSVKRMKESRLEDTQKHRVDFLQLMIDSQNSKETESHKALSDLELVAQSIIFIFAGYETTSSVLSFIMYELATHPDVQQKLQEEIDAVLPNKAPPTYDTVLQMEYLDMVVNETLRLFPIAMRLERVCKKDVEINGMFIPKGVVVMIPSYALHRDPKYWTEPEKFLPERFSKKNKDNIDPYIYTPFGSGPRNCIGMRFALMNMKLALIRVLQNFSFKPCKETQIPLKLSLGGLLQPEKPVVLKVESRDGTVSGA

| SMILES | IC50 (Glucocorticoid receptor [1]) [nM] | EC50 (Glucocorticoid receptor [2]) [nM] | Emax at 20 h [3] [%] | EC50 (Androgen receptor) [nM] | Emax at 20 h (androgen receptor (AR)) [%] | clearance [4] [mL/min/kg] | Vd [5] [L/kg] | half-life [6] [min] | bioavailability [7] [%] | Cmax [8] [ng/mL] | AUC [9] [ng·h/mL] | IC50 (Cytochrome P450 3A4) [nM] | IC50 (Cytochrome P450 2C8) [µM] | IC50 (Cytochrome P450 2C9) [µM] |
| --- | --- | --- | --- | --- | --- | --- | --- | --- | --- | --- | --- | --- | --- | --- |
| COC(C)(C)C#C[C@]1(O)CC[C@H]2[C@@H]3CCC4=CC(=O)CC[C@@H]4[C@H]3[C@@H](c3ccc(N(C)C)cc3)C[C@@]21C | 14.6 | > 2500 | 1.7 | > 2500 | 10.6 | 83.3 | 7.2 | 144 | 54 | 295 | 544 | – | – | – |
| CN(C)c1ccc([C@H]2C[C@@]3(C)[C@@H](CC[C@@]3(O)C#CC(C)(C)C)[C@@H]3CCC4=CC(=O)CCC4=C32)cc1 | 14.6 | > 2500 | 1.4 | > 2500 | 13.4 | 66.7 | 4.9 | 114 | 37 | 72 | 471 | 2900 | > 10 | > 10 |
| CC(C)(C)C#C[C@]1(O)CC[C@H]2[C@@H]3CCC4=CC(=O)CCC4=C3[C@@H](c3ccc(C4(C)COC4)cc3)C[C@@]21C | 9.6 | > 2500 | 2.2 | > 2500 | 11 | 50 | 6.7 | 264 | 7.2 | 59 | 123 | – | – | – |
| CC(C)(C)C#C[C@]1(O)CC[C@H]2[C@@H]3CCC4=CC(=O)CCC4=C3[C@@H](c3ccc(N4CCCC4)cc3)C[C@@]21C | 19.5 | > 2500 | 1.2 | > 2500 | 13.3 | 4.67 | 1.5 | 216 | 0.7 | 21 | 167 | – | – | – |
| CCc1ccc([C@H]2C[C@@]3(C)[C@@H](CC[C@@]3(O)C#CC(C)(C)C)[C@@H]3CCC4=CC(=O)CCC4=C32)cc1 | 17.5 | > 2500 | 1.5 | > 2500 | 20 | 6.83 | 1.7 | 204 | 0 | – | – | – | – | – |
| CC(C)N(C)c1ccc([C@H]2C[C@@]3(C)[C@@H](CC[C@@]3(O)C#CC(C)(C)C)[C@@H]3CCC4=CC(=O)CCC4=C32)cc1 | 43 | > 2500 | 1.7 | > 2500 | 8.2 | 66.7 | 4.7 | 90 | 23 | 59 | 290 | – | – | – |
| CN(C)c1cc(F)c([C@H]2C[C@@]3(C)[C@@H](CC[C@@]3(O)C#CC(C)(C)C)[C@@H]3CCC4=CC(=O)CCC4=C32)c(F)c1 | 12.4 | > 2500 | 1.3 | > 2500 | 11 | – | – | – | – | – | – | – | – | – |
| CC#C[C@]1(O)CC[C@H]2[C@@H]3CCC4=CC(=O)CCC4=C3[C@@H](c3ccccc3)C[C@@]21C | 14.2 | 17.4 | 7 | > 2500 | 27 | – | – | – | – | – | – | – | – | – |
| CC#C[C@]1(O)CC[C@H]2[C@@H]3CCC4=CC(=O)CCC4=C3[C@@H](c3ccc(C(C)C)cc3)C[C@@]21C | 1.93 | > 2500 | 3.1 | 13 | 198 | – | – | – | – | – | – | – | – | – |
| Cc1ccc([C@H]2C[C@@]3(C)[C@@H](CC[C@@]3(O)C#CC(C)(C)C)[C@@H]3CCC4=CC(=O)CCC4=C32)cc1 | 16.1 | > 2500 | 1.5 | > 2500 | 16 | – | – | – | – | – | – | – | – | – |
| CC(C)(C)C#C[C@]1(O)CC[C@H]2[C@@H]3CCC4=CC(=O)CCC4=C3[C@@H](c3ccc(N4CCOCC4)cc3)C[C@@]21C | 13.3 | > 2500 | 1.5 | > 2500 | 18.7 | – | – | – | – | – | – | – | – | – |
| COc1cc([C@H]2C[C@@]3(C)[C@@H](CC[C@@]3(O)C#CC(C)(C)C)[C@@H]3CCC4=CC(=O)CCC4=C32)ccc1N(C)C | 48 | > 2500 | 1 | > 2500 | 5.7 | – | – | – | – | – | – | – | – | – |
| COc1ccc([C@H]2C[C@@]3(C)[C@@H](CC[C@@]3(O)C#CC(C)(C)C)[C@@H]3CCC4=CC(=O)CCC4=C32)cc1 | 16.6 | > 2500 | 1.1 | > 2500 | 9.8 | – | – | – | – | – | – | – | – | – |
